{"source": "paper PMC12657321", "about": "“Pre-clinical evaluation of a potent and effective Pin1-degrading agent in pancreatic cancer” (Molecular Therapy Oncology, 2025)", "key": {"[1]": {"biological_target": "T1, human Pin1 (Homo sapiens, UniProt Q13526)", "T1 construct": "Residues 1–163 of human Pin1 were expressed with a thrombin cleavage site and a HisTag at the N-terminus; 6xHis (N); thrombin cleavage site (N); made in house; host or cells: E. coli", "T1 sequence (Q13526 whole entry, the tested form may be a part)": "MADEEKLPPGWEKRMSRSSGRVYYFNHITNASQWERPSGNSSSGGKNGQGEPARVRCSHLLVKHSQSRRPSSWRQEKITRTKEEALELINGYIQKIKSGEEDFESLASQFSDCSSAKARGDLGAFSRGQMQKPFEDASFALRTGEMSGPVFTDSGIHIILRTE", "test": "DELFIA displacement assay (biotinylated D-peptide / His-tagged Pin1)", "type": "binding", "conditions": "DELFIA displacement of biotinylated D-peptide from His-tagged Pin1; compound incubation 6 h; ± standard error of duplicate measurements", "description": "To assess the ability of our agents to bind and inhibit Pin1, we developed a robust biochemical assay based on the dissociation-enhanced lanthanide fluorescent immunoassay (DELFIA) platform. In our implementation, we used a biotinylated form of a known Pin1-binding peptide (D-peptide) to monitor the ability of test agents to inhibit the interaction between Pin1 and the D-peptide at various incubation times, as described previously.[32] […] In addition, as mentioned above and reported recently, we tested the ability of the agents to reduce Pin1 thermal stability in vitro by thermal denaturation measurements.[32] […] Pin1 unfolding causes a nonspecific interaction between the water-quenched fluorescent dye and the protein’s exposed hydrophobic residues, resulting in increased fluorescence. A shift in the thermal denaturation temperature between the free and bound protein is interpreted as a stabilization or destabilization event induced by the test ligand. […] To further assess whether these agents could be suitable for in vivo efficacy studies, we also performed stability assays in aqueous buffer and in plasma from various species (Table S2, Figure S2). We tested the stability of our agents in plasma from multiple mouse strains as well as in human plasma (Figure S2), given the peptide nature of the compounds. […]"}, "[2]": {"test": "Wild-type mouse plasma stability", "type": "in vitro ADME", "conditions": "37°C, up to 6 h, acetonitrile quench, LC-MS/MS, value given in h, read-out: Stability half-life, Mouse WT (converted)", "description": "(§1) A solution of a Pin1 inhibitor was spiked into blank plasma at 1 μg/mL in various solutions, including an aqueous buffer (1× phosphate-buffered saline; Fisher Scientific, Fair Lawn, NJ), human plasma (Innovative Research Inc., Novi, MI), wild-type mouse plasma (Innovative Research Inc., Novi, MI), plasma form esterase-deficient mice (City of Hope, Duarte, CA), and plasma from Black 6-Cg mice (City of Hope, Duarte, CA).\n(§2) The spiked plasma samples were incubated at 37°C for up to 6 h. At each designated time point, a 20 μL aliquot of the incubation sample was removed and quenched in 100 μL of acetonitrile. At the end of the incubation, the quenched samples were vortexed and centrifuged for 10 min at 4°C and 20,000 × g. The resulting supernatant was reconstituted and analyzed by LC-MS/MS.\n(§3) Table S2. Stability half-life of agents reported in Table 1 after incubation at 37 °C in various media. Acq represents aqueous buffer composed of 1x phosphate buffered saline (Fisher Scientific, Fair Lawn, NJ); human represents human plasma (Innovative Research Inc., Novi, MI); mouse wt represents wild type mouse plasma (Innovative Research Inc., Novi, MI); mouse ES1e represents plasma form esterase deficient mice (City of Hope, Duarte, CA); mouse B6-Cg represents plasma from black 6-Cg mice (City of Hope, Duarte, CA). See Figure 1 for the chemical structures of these compounds.\n(§4) Compound Acq Human Mouse Mouse ES1e Mouse"}, "[3]": {"test": "Stability in plasma from Black 6-Cg mice", "type": "in vitro ADME", "conditions": "Black 6-Cg (B6-Cg), mouse, 37°C, up to 6 h, acetonitrile quench, LC-MS/MS", "description": "as §1, §2, §3, §4"}}, "note": "Non-standard residues stand in square brackets, D forms with d. Residues, ends and D or L forms follow the SMILES beside them. *: point of attachment. Trp(6-Cl) = N[C@@H](Cc1c[nH]c2cc(Cl)ccc12)C(=O)O; Pip = O=C(O)[C@@H]1CCCCN1; ClAc = O=C(CCl)*"}
{"molecule": "CNC(=O)[C@H](Cc1c[nH]c2ccccc12)NC(=O)[C@@H]1CCCCN1C(=O)[C@H](Cc1c[nH]c2cc(Cl)ccc12)NC(=O)CCl", "note": "[164B8] (ClAc-[Trp(6-Cl)]-[Pip]-Trp-NHMe)", "values": [{"measurement": "IC50", "setting": "[1]", "result": "4.65 ± 0.04", "unit": "nM"}, {"measurement": "half-life at 1 μg/mL", "setting": "[2]", "result": "~4.5", "unit": "h"}, {"measurement": "half-life at 1 μg/mL", "setting": "[3]", "result": "> 5", "unit": "h"}]}
